From patent publication US4749568A, “Rubradirin treatment of methicillin-resistant staph” (The Upjohn Company, priority 1987, dated 1988)

Assays:
S. aureus UC6685 = experiment: ED50 determination, mice infected intraperitoneally with S. aureus UC6685; format: in vivo, Staphylococcus aureus (infected mice, Charles Fisher #1); details: dosed 1 and 5 hr post infection, 10080 min
Method: (§1) Effective Dose50 (ED50) determinations were performed using standard methods. All mice (Charles Fisher #1, 20 g) were given sufficient S. aureus intraperitoneally (IP) to kill 90 to 100% of untreated mice. At least five dosage levels of antibiotics were employed per each ED50 determination. The antibiotic was administered subcutaneous (SQ) or orally at 1 and 5 hr post infection. The mice were monitored for one week with deaths being noted daily. The ED50 values were calculated by probit analysis.
(§2) ^1 The dose of drug in mg/kg of body weight required to protect 50% o
(§3) the infected animals. Drug was dosed one and five hours post infection
(§4) ^2 Paldimycin was dosed SQ.

S. aureus UC9213 = experiment: ED50 determination, mice infected intraperitoneally with S. aureus UC9213; format: in vivo, Staphylococcus aureus (infected mice, Charles Fisher #1); details: dosed 1 and 5 hr post infection, 10080 min
Method: as §1, §2, §3, §4

S. aureus UC9271 = experiment: ED50 determination, mice infected intraperitoneally with S. aureus UC9271; format: in vivo, Staphylococcus aureus (infected mice, Charles Fisher #1); details: dosed 1 and 5 hr post infection, 10080 min
Method: as §1, §2, §3, §4

Staphylococcus aureus [1] = experiment: Susceptibility test of patient isolate; format: cell-based; details: isolate from patient, Examples 1 to 3
Method: It is known to those skilled in the art how to determine which Staphylococcus (aureus or epidermidis) infections are rubradirin-sensitiveand methicillin-resistant by use of standarad susceptibility tests. See, "Dilution Susceptibility Test: agar and macro-broth dilution procedures; Manual of Clinical Microbiology, Third Edition, American Society of Microbiology, 1980, Washington, D.C., p 453-458".
(§5) A 70 kg person has a fever of 103° F. and has symptoms of bacterial pneumonia infection. Standard laboratory tests isolate an organism which is identified as Staphylococcus aureus. […] The patient is given 1000 mg of rubradirin three times daily by mouth. The temperature over a short period goes to 98.6° F. and the clinical symptoms of pneumonia disappear.
(§6) A 60 kg patient has an infection on their arm following a severe burn. They have a 101° F. fever. Standard laboratory tests isolate an organism which is identified as Staphylococcus aureus. […] The patient is treated with a cream containing 3% rubradirin.
A 85 kg person has baceterial endocarditis with a fever of 104° F. Standard laboratory tests isolate an organism which is identified as Staphylococcus aureus. […] The patient is treated with an IV infusion of rubradirin (4.5 mg/ml) at a rate of 60 ml/hr for a dose of 76 mg/kg/day.

Staphylococcus aureus [2] = experiment: Treatment of patient with bacterial pneumonia (Example 1); format: in vivo, Staphylococcus aureus (human patient); details: 70 kg male, 1000 mg three times daily by mouth
Method: as §5

Staphylococcus aureus [3] = experiment: Topical treatment of patient with infected burn (Example 2); format: in vivo, Staphylococcus aureus (human patient); details: 60 kg female, cream containing 3% rubradirin
Method: as §6

[4] = test system: two clinical strains of S. aureus; details: cited from earlier work
[5] = test system: Multidrug-resistant staphylococci; details: Orthopedic Clinics of North America 15, 417 (1984); cited from earlier work

With `COc1ccc2c(O)c(NC(=O)c3cc(O[C@@H]4C[C@](C)([N+](=O)[O-])[C@@H](OC)[C@@H](C)O4)c(O)c(C(=O)O[C@H]4[C@H](O)C(=O)[C@]5(C)CNC6=C(O5)C(=O)c5c(cc(C)c(O)c5C(=O)/C(C)=C\[C@@H]4C)C6=O)n3)c(=O)oc2c1` [Rubradirin, rubradirin] the ED50 (S. aureus UC6685; SQ) was 4.7 mg/kg, the ED50 (S. aureus UC6685; oral) was 11.1 mg/kg and the ED50 (S. aureus UC9213; SQ) was 4.7 mg/kg. For the same compound, the ED50 (S. aureus UC9213; oral) was 1.6 mg/kg, the ED50 (S. aureus UC9271; SQ) was 23.1 mg/kg and the ED50 (S. aureus UC9271; oral) was 141 mg/kg. For the same compound, the “Susceptibility test results of the isolate” value (Staphylococcus aureus [1]) was “susceptible”, the “clinical symptoms of pneumonia” value (Staphylococcus aureus [2]) was “disappear” and the temperature (Staphylococcus aureus [2]; fever of 103° F. before) was 98.6 ° F. For the same compound, the inflammation (Staphylococcus aureus [3]) was “less inflammation”, the “wound infection and healing” value (Staphylococcus aureus [3]) was “the wound is not infected and appears to be healing much better” and the temperature (Staphylococcus aureus [3]; after 3 days, 101° F. fever before) was “goes to normal”. The in vitro activity ([4]; two clinical strains resistant to several antibiotics) was “had in vitro activity”.

For `COc1cccc(OC)c1C(=O)N[C@@H]1C(=O)N2[C@@H]1SC(C)(C)[C@@H]2C(=O)O` [methicillin], the “Susceptibility test results of the isolate” value (Staphylococcus aureus [1]) is given as “resistant” and the “methicillin sensitivity of the strains” value ([4]; strains originally tested by Bhuyan et al, later study) is given as “sensitive”.

In the case of `CN[C@H](CC(C)C)C(=O)N[C@H]1C(=O)N[C@@H](CC(N)=O)C(=O)N[C@H]2C(=O)N[C@H]3C(=O)N[C@H](C(=O)N[C@H](C(=O)O)c4cc(O)cc(O)c4-c4cc3ccc4O)[C@H](O)c3ccc(c(Cl)c3)Oc3cc2cc(c3O[C@@H]2O[C@H](CO)[C@@H](O)[C@H](O)[C@H]2O[C@H]2C[C@](C)(N)[C@H](O)[C@H](C)O2)Oc2ccc(cc2Cl)[C@H]1O` [vancomycin], the susceptibility [5] is given as “retained their susceptibility”.

Paldimycin gave an ED50 (S. aureus UC6685; SQ) of 8.1 mg/kg, an ED50 (S. aureus UC9213; SQ) of 12.7 mg/kg and an ED50 (S. aureus UC9271; SQ) of 20.5 mg/kg.
